Data published in ChEMBL document CHEMBL5244224, “Antioxidant Activity of Natural Allylpolyalkoxybenzene Plant Essential Oil Constituents” (J Nat Prod, 2019).
Activity calls are given as the source filed them. No cut-off for these calls is given here.

Tests used:
Erythrocyte [1] = test: Antioxidant activity in H2O2-induced mouse RBC cells assessed as reduction in metHB/oxyHB ratio at 0.01 mM preincubated with compound for 30 mins followed by H2O2 addition and measured after 5 hrs; type: functional, cell-based; conditions: time 5.5 hrs
Erythrocyte [2] = test: Antioxidant activity in H2O2-induced mouse RBC assessed as inhibition of lipid peroxidation by measuring MDA formation at 0.01 mM preincubated with compound for 30 mins followed by H2O2 addition and measured after 4 hrs by spectrophotometric analysis; type: functional, cell-based; conditions: time 4.5 hrs
Erythrocyte [3] = test: Antioxidant activity in H2O2-induced mouse RBC cells assessed as inhibition of methemoglobin formation at 0.01 mM preincubated with compound for 30 mins followed by H2O2 addition and measured after 5 hrs; type: functional, cell-based; conditions: time 5.5 hrs
[4] = Antioxidant activity assessed as DPPH radical scavenging capacity at 0.1 mM incubated for 30 mins under dark condition by absorbance based assay; type: functional
Mus musculus [5] = species on record: Mus musculus; test: Antioxidant activity in mouse brain homogenate assessed as inhibition of FeSO4/ascorbic acid induced lipid autoxidation by measuring reduction in TBARS formation at 0.1 mM preincubated with compound for 30 mins followed by FeSO4/ascorbic acid addition and measured after 1 hrs by TBARS assay; type: functional; conditions: time 1.5 hrs
Erythrocyte [6] = test: Antioxidant activity in H2O2-induced mouse RBC cells assessed as inhibition of ferryl-hemoglobin formation at 0.01 mM preincubated with compound for 30 mins followed by H2O2 addition and measured after 5 hrs; type: functional, cell-based; conditions: time 5.5 hrs
[7] = Antioxidant activity assessed as DPPH radical scavenging capacity at 1 mM incubated for 30 mins under dark condition by absorbance based assay; type: functional
Mus musculus [8] = species on record: Mus musculus; test: Antioxidant activity in mouse brain homogenate assessed as inhibition of FeSO4/ascorbic acid induced lipid autoxidation by measuring reduction in TBARS formation at 1 mM preincubated with compound for 30 mins followed by FeSO4/ascorbic acid addition and measured after 1 hrs by TBARS assay; type: functional; conditions: time 1.5 hrs
[9] = Hemolytic activity in mouse RBC assessed as hemolysis at 0.1 mM measured after 5 hrs; type: toxicity, cell-based, Erythrocyte; conditions: mouse red blood cells, read-out: Activity
Erythrocyte [10] = test: Antioxidant activity in mouse RBC assessed as inhibition of H2O2-induced hemolytic activity at 0.1 mM preincubated with compound for 30 mins followed by H2O2 addition and measured after 5 hrs; type: functional, cell-based; conditions: time 5.5 hrs
Erythrocyte [11] = test: Antioxidant activity in mouse RBC assessed as inhibition of H2O2-induced hemolytic activity at 0.01 mM preincubated with compound for 30 mins followed by H2O2 addition and measured for 5 hrs; type: functional, cell-based; conditions: time 5.5 hrs
Mus musculus [12] = species on record: Mus musculus; test: Antioxidant activity in mouse brain homogenate assessed as inhibition of FeSO4/ascorbic acid induced lipid autoxidation by measuring reduction in TBARS formation at 0.5 mM preincubated with isopropanol for 30 mins followed by compound addition for 30 mins and measured 1 hrs after FeSO4/ascorbic acid addition by TBARS assay; type: functional; conditions: time 1.5 hrs
Erythrocyte [13] = test: Antioxidant activity in mouse RBC assessed as inhibition of H2O2-induced hemolytic activity at 0.01 mM preincubated with compound for 30 mins followed by H2O2 addition and measured at 1 to 3 hrs; type: functional, cell-based; conditions: time 1.5-3.5 hrs

Cc1cc(C(C)(C)C)c(O)c(C(C)(C)C)c1
Activity (Erythrocyte [1]): Active
Activity (Erythrocyte [2]): Active
Activity (Erythrocyte [3]): Active
Activity [4]: 72%
Activity (Mus musculus [5]): Active
Activity (Erythrocyte [6]): Active

C=CCc1ccc2c(c1)OCO2 [SAFROLE]
Activity [7]: 10.6%
Activity (Mus musculus [8]): Active
hemolysis at 5 h, 100 µM [9]: ≤ 10%
Activity (Erythrocyte [10]): inactive
Activity (Erythrocyte [3]): Active
Activity (Erythrocyte [11]): Active
Activity [4]: 1.26%
Activity (Mus musculus [5]): inactive
Activity (Erythrocyte [6]): Active

C=CCc1c(OC)c(OC)c2c(c1OC)OCO2
Activity (Erythrocyte [2]): inactive
Activity [7]: 4.3%
Activity (Mus musculus [8]): Active
Activity (Mus musculus [12]): inactive
Activity (Erythrocyte [11]): inactive
Activity [4]: 0.91%
Activity (Mus musculus [5]): Active

C=CCc1ccccc1
Activity [7]: 4.29%
Activity (Mus musculus [8]): Active
Activity (Erythrocyte [10]): inactive
Activity (Erythrocyte [3]): Active
Activity (Erythrocyte [11]): Active
Activity [4]: 1.01%
Activity (Mus musculus [5]): inactive
Activity (Erythrocyte [6]): Active

C=CCc1cc2c(c(OC)c1OC)OCO2 [DILLAPIOLE]
Activity (Erythrocyte [1]): Active
Activity [7]: 3.94%
Activity (Mus musculus [8]): Active
hemolysis at 5 h, 100 µM [9]: ≤ 10%
Activity (Mus musculus [12]): inactive
Activity (Erythrocyte [10]): Active
Activity (Erythrocyte [3]): Active
Activity (Erythrocyte [11]): Active
Activity [4]: 0.38%
Activity (Mus musculus [5]): Active
Activity (Erythrocyte [6]): Active

C=CCc1cc(OC)c2c(c1OC)OCO2 [APIOL]
Activity [7]: 0.3%
Activity (Mus musculus [8]): Active
hemolysis at 5 h, 100 µM [9]: ≤ 10%
Activity (Mus musculus [12]): inactive
Activity (Erythrocyte [10]): inactive
Activity (Erythrocyte [3]): Active
Activity (Erythrocyte [11]): Active
Activity [4]: 0.05%
Activity (Mus musculus [5]): Active
Activity (Erythrocyte [6]): Active

C=CCc1ccc(OC)cc1
Activity [7]: 1.16%
Activity (Mus musculus [8]): Active
Activity (Erythrocyte [10]): inactive
Activity (Erythrocyte [3]): Active
Activity (Erythrocyte [11]): Active
Activity [4]: 0.25%
Activity (Mus musculus [5]): inactive
Activity (Erythrocyte [6]): Active

C=CCc1c(O)c(OC)c2c(c1OC)OCO2
Activity (Erythrocyte [2]): Active
Activity [7]: 90.2%
Activity (Mus musculus [8]): Active
Activity (Mus musculus [12]): inactive
Activity (Erythrocyte [13]): Active
Activity (Erythrocyte [11]): Active
Activity [4]: 88.9%
Activity (Mus musculus [5]): Active

C=CCc1cc(OC)c2c(c1)OCO2 [ELEMICIN]
Activity [7]: 5.25%
Activity (Mus musculus [8]): Active
Activity (Mus musculus [12]): inactive
Activity (Erythrocyte [10]): Active
Activity (Erythrocyte [3]): Active
Activity (Erythrocyte [11]): Active
Activity [4]: 1.31%
Activity (Mus musculus [5]): Active
Activity (Erythrocyte [6]): Active

C=CCc1cc(OC)c(OC)c(OC)c1OC
Activity [7]: 1.47%
Activity (Mus musculus [8]): Active
Activity (Erythrocyte [10]): inactive
Activity (Erythrocyte [3]): Active
Activity (Erythrocyte [11]): Active
Activity [4]: 0.1%
Activity (Mus musculus [5]): inactive
Activity (Erythrocyte [6]): Active

Cc1c(C)c2c(c(C)c1O)CCC(C)(C(=O)O)O2 (stereo unspecified)
Activity [4]: 94.9%
Activity (Mus musculus [5]): Active
